Test results as given in patent US5807875A, “Amino acid derivatives, pharmaceutical compositions containing these compounds and processes for preparing them” (Dr. Karl Thomae GmbH, priority 1993, dated 1998).

How the values were obtained:
[1] = target: T1, NPY-Y1 receptor (Homo sapiens, UniProt P25929); experiment: Studies of binding with SK-N-MC cells (displacement of [^125 I]-Bolton-Hunter-NPY); conditions: SK-N-MC cells expressing the human Y1-receptor, 3 hours at ambient temperature
T1 construct: SK-N-MC cells (expressing the human Y1 -receptor); endogenous in cells; host or cells: SK-N-MC (human cell line), whole cells in suspension
T1 sequence (P25929 1-384): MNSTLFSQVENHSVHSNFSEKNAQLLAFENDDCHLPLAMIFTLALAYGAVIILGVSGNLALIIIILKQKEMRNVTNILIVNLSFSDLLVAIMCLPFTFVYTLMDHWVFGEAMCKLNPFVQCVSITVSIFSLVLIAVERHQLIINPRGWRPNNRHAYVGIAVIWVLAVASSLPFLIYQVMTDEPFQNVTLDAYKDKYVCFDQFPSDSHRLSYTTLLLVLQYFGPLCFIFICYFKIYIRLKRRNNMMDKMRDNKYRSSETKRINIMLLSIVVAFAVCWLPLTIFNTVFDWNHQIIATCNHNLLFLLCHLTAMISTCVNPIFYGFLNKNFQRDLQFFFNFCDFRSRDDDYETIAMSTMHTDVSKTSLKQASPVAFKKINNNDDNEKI
Description: A. Studies of binding with SK-N-MC cells (expressing the human Y1 -receptor)
Incubation is ended by centrifuging (10 minutes at 3000×gand 4° C.). After washing once with PBS, the radioactivity of the pellet is measured in a gamma counter. […] The proportion of non-specific binding is defined as that radioactivity which is bound in the presence of 1 μM NPY. The IC50 values of the unlabelled test substances are determined graphically.

[2] = tested on: NPY-induced blood pressure effects; experiment: In vivo NPY-antagonism (pithed rats); conditions: Rattus norvegicus, iv, 1 min, inhibition of increase in diastolic blood pressure by NPY (10 μg/kg, i.v.), NPY given one minute after test substance, read-out: pID50 (the source's name) (converted)
Description: C. In vivo NPY-antagonism
Male rats of normal blood pressure (Chbb:THOM, 300 to 350 g) are anaesthetised with sodium hexobarbital (150 mg/kg, i.p.). After intubation of the trachea the animals are pithed by introducing a blunt needle through the eye into the spinal bone marrow channel. The animals are ventilated with oxygen-rich ambient air using a respiratory pump (20 strokes/minute). A cannula is inserted in the left carotid artery and the arterial blood pressure is measured using a pressure gauge (Braun Melsungen Combitrans) connected to a recording device. For injection purposes a catheter is placed in the left jugular vein through which heparin is administered (200 IU/kg, i.v.). After the blood pressure has been stabilised, the animals are given 2 bolus injections of NPY (10 μg/kg, i.v.) at intervals of 15 minutes. The average increase in diastolic blood pressure is taken as the reference value (=100%). The test substances are injected in increasing doses (4 to 6 doses) at intervals of 15 minutes. One minute after administration of the test substance, NPY is administered.
The antagonistic effect of the test substances is determined by plotting the percentage inhibition of the NPY-induced blood pressure effects against the logarithm of the concentration of active substance.

[3] = tested on: NPY activity; experiment: NPY-antagonism in vitro (isolated perfused rat kidney); conditions: inhibition of NPY (1 μM bolus) induced pressure increase, 5 minute infusion of compound
Description: B. NPY-antagonism in vitro
Male rats (CHbb: THOM, 300 to 350 g) are given heparin (100 IU, i.v.) and the animals are then killed by a blow to the back of the neck. The abdomen is opened along the centre of the body and the left kidney is removed after the insertion of catheters in the renal artery, renal vein and ureter. The isolated kidney is immediately perfused with a modified Krebs-Ringer solution having the following composition (4 ml/minute):
A mixture of 95% O2 /5% CO2 is passed through the solution which is kept at a temperature of 37° C. The perfusion pressure is measured continuously using a pressure gauge. After a 60 minute stabilisation period the perfusion rate is adjusted so as to obtain a perfusion pressure of approximately 100 mm Hg. After a further 30 minutes the experiment is started and NPY (1 μM) is administered as a bolus (0.1 ml) at 15 minute intervals until the pressure increase observed reaches a constant value. The compounds to be tested are given in the form of a continuous infusion over a period of 5 minutes and then NPY is injected. After a 30 minute wash-out period the next highest concentration of test substance is investigated. 3 to 5 different concentrations of the particular compound are tested on each occasion. Concentration/activity curves can be obtained by plotting the percentage inhibition of the NPY activity against the logarithm of the concentration (mol/l) of the compound.

[4] = Solubility

Structure (SMILES)	IC50 [1]	also measured
CC1(C)NC(=O)N(Cc2ccc(CNC(=O)[C@@H](CCCNC(=N)N)NC(=O)C(c3ccccc3)c3ccccc3)cc2)C1=O [L]	26.8 nM	
COc1ccc(CNC(=O)C(CCCNC(=N)N)NC(=O)C(c2ccccc2)c2ccccc2)cc1 (stereo not drawn) [K]	32 nM	ED50 [2]: 0.331 µmol/kg; pIC50 [3]: 6.70 mol/l
O=C(NCc1ccc(O)cc1)C(Cc1ccc(C2=NCCN2)cc1)NC(=O)C(c1ccccc1)c1ccccc1 (stereo not drawn) [O]	207 nM	
Cc1cc(CNC(=O)C(CCCNC(=N)N)NC(=O)C(c2ccccc2)c2ccccc2)cc(C)c1O (stereo not drawn) [I]	26 nM	
N=C(N)CCCCC(NC(=O)C(c1ccccc1)c1ccccc1)C(=O)NCc1ccc(O)cc1 (stereo not drawn) [P]	39 nM	
O=C(NC(CCCNc1ncc[nH]1)C(=O)NCc1ccc(O)cc1)c1ccc2ccccc2c1 (stereo not drawn) [M]	80.5 nM	
N=C(N)NCCC[C@@H](NC(=O)C(c1ccccc1)c1ccccc1)C(=O)NCc1ccc(CN)cc1.O=C(O)C(F)(F)F.O=C(O)C(F)(F)F [Example 128, (R)-N-[[4-(Aminomethyl)phenyl]methyl]-N^2-(diphenylacetyl)-argininamide-bis-(trifluoroacetate)]		solubility in dichloromethane ([4]; dichloromethane): readily soluble; solubility in dimethylsulphoxide ([4]; dimethylsulphoxide): readily soluble; solubility in methanol ([4]; methanol): readily soluble; solubility in water ([4]; water): readily soluble
N=C(N)NCCC[C@@H](NC(=O)C(c1ccccc1)c1ccccc1)C(=O)NCc1ccc(O)cc1 [C]		ED50 [2]: 0.186 µmol/kg; pIC50 [3]: 7.15 mol/l
O=C(Nc1ccc2ccccc2c1)NC(CCCNc1ncc[nH]1)C(=O)NCc1ccc(O)cc1 (stereo not drawn) [N]	85.5 nM	

The next lines start with results.

IC50 [1]	Structure (SMILES)	also measured
10 nM	Cc1cc(CNC(=O)C(CCCNC(=N)N)NC(=O)C(c2ccccc2)c2ccccc2)ccc1O (stereo not drawn) [E]	
18 nM	O=C(NCc1ccc(O)cc1)C(CCCNc1ncc[nH]1)NC(=O)C(c1ccccc1)c1ccccc1 (stereo not drawn) [H]	
7.7 nM	N=C(N)NCCC[C@@H](NC(=O)C(c1ccccc1)c1ccccc1)C(=O)NCc1ccc(CCO)cc1 [B]	
1.8 nM	N=C(N)NCCC[C@@H](NC(=O)C(c1ccc(Br)cc1)c1ccc(Br)cc1)C(=O)NCc1ccc(O)cc1 [A]	
25.3 nM	CN(Cc1ccc(O)cc1)C(=O)[C@@H](CCCNC(=N)N)NC(=O)C(c1ccccc1)c1ccccc1 [G]	
11.3 nM	N=C(N)c1cccc(CC(NC(=O)C(c2ccccc2)c2ccccc2)C(=O)NCc2ccc(O)cc2)c1 (stereo not drawn) [F]	ED50 [2]: 0.151 µmol/kg; pIC50 [3]: 7.70 mol/l
13.5 nM	N=C(N)NCCC[C@@H](NC(=O)C(c1ccccc1)c1ccccc1)C(=O)NCc1ccc(CO)cc1 [D]	
